For assay [1], the target named is T1, EGFR with insertion SVD between D770 and N771 (mutEGFR D770_N771insSVD) (Homo sapiens, UniProt P00533, DUP768-770).
T1 construct: amino acids R669 to A1210; made in house; host or cells: Sf9 insect cells (baculovirus)
The experiment in a line: Exon20-Mutant-EGFR(D770_N771insSVD) kinase assay (TR-FRET). The assay is classed as biochemical. The settings on record: 2 mM ATP, Table 2. A general note: Time-resolved FRET reads energy transfer from a long-lived donor to a nearby acceptor.

A further assay concerns the target T2, Bub1 (Homo sapiens, UniProt O43683).
T2 construct: catalytic domain of human Bub1 (amino acids 704-1085); His6 (N); made in house; host or cells: insect cells (Hi5)
As to the kind of experiment: Bub1 high ATP kinase assay (TR-FRET). The note with it: Bub1 high ATP (2 mM) IC50, TR-FRET, 2 mM ATP; Table 3. The class given is biochemical. In outline:
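Read-out was the 665/620 nm TR-FRET ratio after 1 h at 22 °C with EDTA stop mix (streptavidin-XL665, anti-phosphoserine antibody, Eu anti-mouse IgG). Beforehand, a biotinylated peptide was phosphorylated for 60 min at 22 °C under high ATP by His6-tagged human Bub1 residues 704-1085 expressed in Hi5 cells, about 200 ng/ml.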

In assay [2] the target is Ba/F3-EGFR-D770_N771insSVD cells (Homo sapiens, UniProt P00533, DUP768-770, cells depend on it). As to the kind of experiment: Ba/F3 cell survival assay, EGFR D770_N771insSVD. The assay is classed as cell-based. The settings on record: Cell Titer-Glo, 48 h, without IL-3; Table 4; read-out: BA/F3 (insSVD) IC50. Background: In ATP-based viability assays light output follows the ATP content of the culture.
Sequence of Ba/F3-EGFR-D770_N771insSVD cells (P00533 with tags, fused parts or gaps DUP768-770): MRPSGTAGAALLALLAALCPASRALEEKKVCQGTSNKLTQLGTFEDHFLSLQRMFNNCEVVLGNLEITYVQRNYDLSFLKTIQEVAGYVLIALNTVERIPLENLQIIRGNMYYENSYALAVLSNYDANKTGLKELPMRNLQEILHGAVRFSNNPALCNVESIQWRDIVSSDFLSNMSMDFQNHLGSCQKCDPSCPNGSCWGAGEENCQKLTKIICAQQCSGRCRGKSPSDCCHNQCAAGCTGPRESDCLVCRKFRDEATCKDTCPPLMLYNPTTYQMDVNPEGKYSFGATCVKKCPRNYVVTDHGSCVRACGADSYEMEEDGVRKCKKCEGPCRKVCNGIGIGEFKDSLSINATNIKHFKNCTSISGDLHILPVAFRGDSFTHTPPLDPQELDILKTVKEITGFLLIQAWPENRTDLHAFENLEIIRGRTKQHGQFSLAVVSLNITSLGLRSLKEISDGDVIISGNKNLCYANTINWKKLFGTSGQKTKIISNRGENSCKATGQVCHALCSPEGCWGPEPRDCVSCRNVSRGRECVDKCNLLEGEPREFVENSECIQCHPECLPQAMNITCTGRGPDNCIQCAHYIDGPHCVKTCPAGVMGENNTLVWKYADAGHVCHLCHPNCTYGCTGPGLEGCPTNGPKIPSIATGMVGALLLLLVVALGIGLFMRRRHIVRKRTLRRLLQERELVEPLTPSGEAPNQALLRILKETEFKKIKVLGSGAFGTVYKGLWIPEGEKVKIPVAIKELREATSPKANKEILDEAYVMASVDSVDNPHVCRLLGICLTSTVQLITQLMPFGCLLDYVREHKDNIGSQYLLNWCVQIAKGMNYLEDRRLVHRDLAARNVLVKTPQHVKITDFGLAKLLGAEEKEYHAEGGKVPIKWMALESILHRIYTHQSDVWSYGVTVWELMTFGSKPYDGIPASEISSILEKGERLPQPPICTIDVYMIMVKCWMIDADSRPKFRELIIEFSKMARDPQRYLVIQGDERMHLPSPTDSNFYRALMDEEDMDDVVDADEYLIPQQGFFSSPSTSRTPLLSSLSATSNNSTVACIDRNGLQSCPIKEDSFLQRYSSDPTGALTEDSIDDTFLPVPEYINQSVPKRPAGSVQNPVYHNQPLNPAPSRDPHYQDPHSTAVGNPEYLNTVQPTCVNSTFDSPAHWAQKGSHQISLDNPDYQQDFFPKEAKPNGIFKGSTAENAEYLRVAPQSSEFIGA

In a further assay the target is Ba/F3-EGFR-WT cells (Homo sapiens, UniProt P00533). As to the kind of experiment: Ba/F3 cell survival assay, wild type EGFR. The assay is classed as cell-based. The settings on record: Cell Titer-Glo, 48 h, with 10 ng/mL EGF; Table 4; read-out: BA/F3 (wild type) IC50.
Sequence of Ba/F3-EGFR-WT cells (P00533 whole entry, looked up, change not shown): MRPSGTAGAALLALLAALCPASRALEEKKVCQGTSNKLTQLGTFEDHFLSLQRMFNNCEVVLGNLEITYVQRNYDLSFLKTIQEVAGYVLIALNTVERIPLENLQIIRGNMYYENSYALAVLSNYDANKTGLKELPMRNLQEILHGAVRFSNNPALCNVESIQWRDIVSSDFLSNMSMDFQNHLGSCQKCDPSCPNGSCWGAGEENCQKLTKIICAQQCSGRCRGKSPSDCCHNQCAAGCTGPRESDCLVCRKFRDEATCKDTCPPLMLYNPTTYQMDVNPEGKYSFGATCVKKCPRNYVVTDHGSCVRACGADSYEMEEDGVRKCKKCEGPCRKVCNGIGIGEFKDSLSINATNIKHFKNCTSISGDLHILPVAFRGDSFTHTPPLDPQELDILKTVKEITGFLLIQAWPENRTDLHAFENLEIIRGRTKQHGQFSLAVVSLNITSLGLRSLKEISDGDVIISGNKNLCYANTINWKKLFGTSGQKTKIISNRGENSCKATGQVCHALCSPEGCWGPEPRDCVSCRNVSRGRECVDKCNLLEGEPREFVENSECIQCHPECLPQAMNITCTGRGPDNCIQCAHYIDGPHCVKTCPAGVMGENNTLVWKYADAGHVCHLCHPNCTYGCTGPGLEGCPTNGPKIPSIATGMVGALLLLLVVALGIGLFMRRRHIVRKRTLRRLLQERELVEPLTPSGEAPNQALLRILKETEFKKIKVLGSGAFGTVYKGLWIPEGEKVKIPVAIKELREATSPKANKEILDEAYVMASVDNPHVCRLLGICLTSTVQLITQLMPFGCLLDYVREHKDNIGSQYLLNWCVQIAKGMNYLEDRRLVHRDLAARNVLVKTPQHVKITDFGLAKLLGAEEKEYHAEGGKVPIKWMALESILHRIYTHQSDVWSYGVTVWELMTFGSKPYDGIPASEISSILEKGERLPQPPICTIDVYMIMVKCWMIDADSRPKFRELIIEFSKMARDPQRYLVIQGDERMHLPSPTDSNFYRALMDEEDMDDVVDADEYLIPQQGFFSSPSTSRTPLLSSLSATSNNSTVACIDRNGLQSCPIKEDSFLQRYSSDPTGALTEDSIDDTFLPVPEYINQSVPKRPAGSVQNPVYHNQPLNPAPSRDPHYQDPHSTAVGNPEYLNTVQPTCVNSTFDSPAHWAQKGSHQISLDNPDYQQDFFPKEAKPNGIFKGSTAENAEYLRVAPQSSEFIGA

SMILES strings stand for the structures.

T1 sequence (P00533 other isoform, or with tags, fused parts or gaps DUP768-770): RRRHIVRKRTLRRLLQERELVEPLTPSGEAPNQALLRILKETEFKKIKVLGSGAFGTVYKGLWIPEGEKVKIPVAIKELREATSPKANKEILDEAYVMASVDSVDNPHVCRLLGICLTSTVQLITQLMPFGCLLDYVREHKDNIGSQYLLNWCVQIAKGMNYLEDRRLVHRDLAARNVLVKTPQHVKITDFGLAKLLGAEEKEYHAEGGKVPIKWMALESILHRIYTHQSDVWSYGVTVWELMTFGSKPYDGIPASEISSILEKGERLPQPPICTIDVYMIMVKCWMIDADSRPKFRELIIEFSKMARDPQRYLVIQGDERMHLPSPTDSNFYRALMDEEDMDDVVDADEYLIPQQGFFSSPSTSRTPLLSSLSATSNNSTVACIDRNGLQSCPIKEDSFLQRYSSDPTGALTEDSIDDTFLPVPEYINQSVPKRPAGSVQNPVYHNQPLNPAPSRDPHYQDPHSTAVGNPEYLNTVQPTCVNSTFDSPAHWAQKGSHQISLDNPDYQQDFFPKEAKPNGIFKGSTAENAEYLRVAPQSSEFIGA
T2 sequence (O43683 704-1085): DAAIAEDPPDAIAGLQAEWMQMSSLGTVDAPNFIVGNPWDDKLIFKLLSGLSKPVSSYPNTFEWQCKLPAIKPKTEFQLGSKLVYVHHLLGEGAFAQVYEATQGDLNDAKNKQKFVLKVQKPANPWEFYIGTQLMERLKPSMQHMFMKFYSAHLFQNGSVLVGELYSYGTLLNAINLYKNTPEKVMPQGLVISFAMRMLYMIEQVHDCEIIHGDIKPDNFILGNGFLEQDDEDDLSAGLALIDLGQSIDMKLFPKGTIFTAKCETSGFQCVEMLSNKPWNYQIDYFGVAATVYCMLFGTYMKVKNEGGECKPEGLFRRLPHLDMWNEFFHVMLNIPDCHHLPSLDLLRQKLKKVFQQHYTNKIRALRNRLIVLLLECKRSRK

Consider `COc1c(Cl)cccc1Nc1c(-c2ccncc2OCC2COCCO2)[nH]c2c1C(=O)NCC2C` (centres unmarked) [Example 33, 3-(3-chloro-2-methoxy-anilino)-2-[3-(1,4-dioxan-2-ylmethoxy)-4-pyridyl]-7-methyl-1,5,6,7-tetrahydropyrrolo[3,2-c]pyridin-4-one], for which the “mutEGFR (D770_N771insSVD) kinase assay IC50” value in assay [1] was 0.201 nM. The IC50 at Bub1 worked out at 5160 nM. The GI50 in assay [2] was determined as 73.1 nM; on Ba/F3-EGFR-WT cells it was 844 nM.

For the compound `COc1c(Cl)cccc1Nc1c(-c2ccncc2OC[C@@H]2CCCO2)[nH]c2c1C(=O)NCC2CC=C(F)F` (single isomer, unassigned) [Example 101], the “mutEGFR (D770_N771insSVD) kinase assay IC50” value in assay [1] came out at 0.553 nM. The IC50 at Bub1 is more than 20000 nM. Besides, the values for the GI50 (in assay [2]; on Ba/F3-EGFR-WT cells) were 42.1 nM and 603 nM, respectively.

By IC50 is commonly meant the concentration at which inhibition is half-maximal. The low end stands for inhibition by little substance, the high end for a need for much substance.
